Laboratory results taken from ChEMBL document CHEMBL5038662, “Isolation, Synthesis, and Structure-Activity Relationship Study on Daphnane and Tigliane Diterpenes as HIV Latency-Reversing Agents” (J Med Chem, 2022).

Assays:
[1] = test system: Human immunodeficiency virus 1; assay: Antiviral activity against HIV1 in human TZM-bl cells transfected with firefly luciferase and beta-galactosidase reporter genes assessed as activation of LTR-mediated transcriptional activity incubated for 24 hrs by luciferase reporter gene assay; type: functional, organism-based; conditions: Human immunodeficiency virus 1, TZM-bl
TZM = assay: Cytotoxicity against human TZM-bl cells measured upto 0.1 uM; type: toxicity, cell-based

SMILES	EC50 [1]	Activity (TZM)
CCCCC/C=C\CCC(=O)O[C@@]12[C@H](OC(=O)c3ccccc3)[C@@H](C)[C@@]3(O)[C@@H](C=C(CO)C[C@]4(O)C(=O)C(C)=C[C@@H]34)[C@@H]1C2(C)C	4.2 nM	Non-Toxic
CC/C=C\C/C=C\CCC(=O)O[C@@]12[C@H](OC(=O)c3ccccc3)[C@@H](C)[C@@]3(O)[C@@H](C=C(CO)C[C@]4(O)C(=O)C(C)=C[C@@H]34)[C@@H]1C2(C)C	3.2 nM	
CCCCCCCC(=O)O[C@@]12[C@H](OC(=O)c3ccccc3)[C@@H](C)[C@]3(O)[C@@H]4C=C(C)C(=O)[C@@]4(O)[C@H](O)C(CO)=C[C@H]3[C@@H]1C2(C)C	12 nM	
CCCCC/C=C\CCC(=O)O[C@@H]1[C@@H](C)[C@@]2(O)[C@@H](C=C(CO)C[C@]3(O)C(=O)C(C)=C[C@@H]23)[C@@H]2C(C)(C)[C@]12OC(=O)c1ccccc1	18 nM	Non-Toxic
CCC(=O)O[C@@]12[C@H](OC(=O)c3ccccc3)[C@@H](C)[C@@]3(O)[C@@H](C=C(CO)C[C@]4(O)C(=O)C(C)=C[C@@H]34)[C@@H]1C2(C)C	10 nM	Non-Toxic
CCCCC/C=C/CCC(=O)O[C@@]12[C@H](OC(=O)c3ccccc3)[C@@H](C)[C@@]3(O)[C@@H](C=C(CO)C[C@]4(O)C(=O)C(C)=C[C@@H]34)[C@@H]1C2(C)C	5.8 nM	Non-Toxic
CCCCCCC(=O)O[C@@]12[C@H](OC(=O)c3ccccc3)[C@@H](C)[C@@]3(O)[C@@H](C=C(CO)C[C@]4(O)C(=O)C(C)=C[C@@H]34)[C@@H]1C2(C)C	0.94 nM	
CCCCC/C=C\C/C=C\CCCCCCCC(=O)O[C@@]12[C@H](OC(=O)c3ccccc3)[C@@H](C)[C@@]3(O)[C@@H](C=C(CO)C[C@]4(O)C(=O)C(C)=C[C@@H]34)[C@@H]1C2(C)C	13 nM	Non-Toxic
CCCCCCCC(=O)O[C@@]12[C@H](OC(=O)c3ccccc3)[C@@H](C)[C@@]3(O)[C@@H](C=C(CO)C[C@]4(O)C(=O)C(C)=C[C@@H]34)[C@@H]1C2(C)C	1.5 nM	
C=C(C)[C@]12C[C@@H](COC(C)=O)[C@@]34OC5(O[C@@H]1[C@@H]3[C@@H]1O[C@]1(CO)[C@@H](O)[C@@]1(O)[C@H]4[C@H]([C@H](C)[C@@H]1OCc1ccccc1)[C@H](C)CCCCCC[C@H]5O)O2	0.33 nM	
CCCCCCCCCCCCCCCCCC(=O)O[C@@]12[C@H](OC(=O)c3ccccc3)[C@@H](C)[C@@]3(O)[C@@H](C=C(CO)C[C@]4(O)C(=O)C(C)=C[C@@H]34)[C@@H]1C2(C)C		Non-Toxic
C=C(C)[C@]12C[C@@H](COC(C)=O)[C@@]34OC5(O[C@@H]1[C@@H]3[C@@H]1O[C@]1(CO)[C@@H](O)[C@@]1(O)[C@H]4[C@H]([C@H](C)[C@@H]1OCc1ccccc1)[C@H](C)C[C@H](OCc1ccccc1)CCCC[C@H]5O)O2	12 nM	
CCCCC/C=C/C/C=C\C/C=C\CCCCC(=O)O[C@@]12[C@H](OC(=O)c3ccccc3)[C@@H](C)[C@@]3(O)[C@@H](C=C(CO)C[C@]4(O)C(=O)C(C)=C[C@@H]34)[C@@H]1C2(C)C	10 nM	Non-Toxic
CCCCCCCC/C=C\CCCCCCCC(=O)O[C@@]12[C@H](OC(=O)c3ccccc3)[C@@H](C)[C@@]3(O)[C@@H](C=C(CO)C[C@]4(O)C(=O)C(C)=C[C@@H]34)[C@@H]1C2(C)C	16 nM	Non-Toxic
C=C(C)[C@]12C[C@@H](COCc3ccccc3)[C@@]34OC5(CCCCC[C@@H](OCc6ccccc6)C[C@@H](C)[C@H]6[C@H](C)[C@H](OCc7ccccc7)[C@@](O)([C@H](O)[C@@]7(CO)O[C@H]7[C@H]3[C@H]1O5)[C@@H]64)O2	3.9 nM	
C=C(C)[C@]12C[C@@H](COCc3ccccc3)[C@@]34OC5(CCCCCCC[C@@H](C)[C@H]6[C@H](C)C(=O)[C@@](O)([C@H](O)[C@@]7(CO)O[C@H]7[C@H]3[C@H]1O5)[C@@H]64)O2	3.7 nM	
C=C(C)[C@]12C[C@@H](C)[C@@]34OC5(CCCCCCC[C@@H](C)[C@H]6[C@H](C)[C@H](OCc7ccccc7)[C@@](O)([C@H](O)[C@@]7(CO)O[C@H]7[C@H]3[C@H]1O5)[C@@H]64)O2	2.7 nM	
C=C(C)[C@]12CC[C@@]34OC(C)(O[C@@H]1[C@@H]3[C@@H]1O[C@]1(CO)[C@@H](O)[C@]1(O)[C@@H](OCc3ccccc3)[C@@H](C)C[C@@H]41)O2	0.14 nM	
CC/C=C\C/C=C\C/C=C\CCCCCCCC(=O)O[C@@]12[C@H](OC(=O)c3ccccc3)[C@@H](C)[C@@]3(O)[C@@H](C=C(CO)C[C@]4(O)C(=O)C(C)=C[C@@H]34)[C@@H]1C2(C)C	7.6 nM	Non-Toxic
C=C(C)[C@]12CC[C@@]34OC(C)(O[C@@H]1[C@@H]3[C@@H]1O[C@]1(CO)[C@@H](O)[C@]1(O)C(=O)[C@@H](C)C[C@@H]41)O2	3.7 nM	
C=C(C)[C@]12C[C@@H](C)[C@@]34O[C@]5(CCCCCCC[C@H](C)[C@H]6[C@H](C)C(=O)[C@@](O)([C@H](O)[C@@]7(CO)O[C@H]7[C@H]3[C@H]1O5)[C@@H]64)O2	6.9 nM	
C=C(C)[C@]12C[C@@H](C)[C@@]34O[C@@](CCCCCCCCC)(O[C@@H]1[C@@H]3[C@@H]1O[C@]1(CO)[C@@H](O)[C@]1(O)C(=O)C(C)=C[C@H]14)O2	9 nM	
C=C(C)[C@@]12O[C@]3(/C=C/C=C/CCCCCCCCC)O[C@@H]1[C@@H]1[C@@H]4O[C@]4(CO)[C@@H](O)[C@]4(O)C(=O)C(C)=C[C@H]4[C@@]1(O3)[C@H](C)[C@H]2OC(C)=O	0.39 nM	
CCCCCCCCCC(=O)O[C@@]12[C@H](OC(=O)c3ccccc3)[C@@H](C)[C@@]3(O)[C@@H](C=C(CO)C[C@]4(O)C(=O)C(C)=C[C@@H]34)[C@@H]1C2(C)C [STELLERARIN]	0.74 nM	
